These are literature values, as cited in patent publication US10143689B2, “SN-38 loaded iron crosslinked micelle and methods thereof” (Intezyne Technologies, Inc., priority 2017, dated 2018).

Molecules are shown by their SMILES.

Series [1] concerns various cancer cells. Particulars: in vitro.

With `CCc1c2c(nc3ccc(O)cc13)-c1cc3c(c(=O)n1C2)COC(=O)[C@]3(O)CC` [SN-38, 7-ethyl-10-hydroxy-CPT], the “solubility in aqueous solutions” value is recorded as “exceedingly insoluble”. Besides, the “cytotoxic activity, potency relative to CPT-11” value in series [1] was “up to 1,000 fold”.
